In patent publication US11174268B2, “Benzenesulfonamide compouds and their use as therapeutic agents” (Xenon Pharmaceuticals Inc., priority 2016, dated 2021):
Where a name gives a salt, the structure may show the parent alone. Read-outs that look alike come from different tables or passages of the source.

Legend:
NaV1.6 [1] = biological target: T1, NaV1.6 (Homo sapiens (Human), UniProt Q9UQD0); experiment: Sodium Influx Assay (Flux), NaV1.6; format: cell-based; settings: Trex HEK293 cells, ANG2 dye, inactivated state;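 further: Tetracycline-induced cells, compounds applied for one hour at room temperature with modulators holding channels open, IC50 from percent inhibition of sodium influx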
T1 sequence (Q9UQD0 whole entry): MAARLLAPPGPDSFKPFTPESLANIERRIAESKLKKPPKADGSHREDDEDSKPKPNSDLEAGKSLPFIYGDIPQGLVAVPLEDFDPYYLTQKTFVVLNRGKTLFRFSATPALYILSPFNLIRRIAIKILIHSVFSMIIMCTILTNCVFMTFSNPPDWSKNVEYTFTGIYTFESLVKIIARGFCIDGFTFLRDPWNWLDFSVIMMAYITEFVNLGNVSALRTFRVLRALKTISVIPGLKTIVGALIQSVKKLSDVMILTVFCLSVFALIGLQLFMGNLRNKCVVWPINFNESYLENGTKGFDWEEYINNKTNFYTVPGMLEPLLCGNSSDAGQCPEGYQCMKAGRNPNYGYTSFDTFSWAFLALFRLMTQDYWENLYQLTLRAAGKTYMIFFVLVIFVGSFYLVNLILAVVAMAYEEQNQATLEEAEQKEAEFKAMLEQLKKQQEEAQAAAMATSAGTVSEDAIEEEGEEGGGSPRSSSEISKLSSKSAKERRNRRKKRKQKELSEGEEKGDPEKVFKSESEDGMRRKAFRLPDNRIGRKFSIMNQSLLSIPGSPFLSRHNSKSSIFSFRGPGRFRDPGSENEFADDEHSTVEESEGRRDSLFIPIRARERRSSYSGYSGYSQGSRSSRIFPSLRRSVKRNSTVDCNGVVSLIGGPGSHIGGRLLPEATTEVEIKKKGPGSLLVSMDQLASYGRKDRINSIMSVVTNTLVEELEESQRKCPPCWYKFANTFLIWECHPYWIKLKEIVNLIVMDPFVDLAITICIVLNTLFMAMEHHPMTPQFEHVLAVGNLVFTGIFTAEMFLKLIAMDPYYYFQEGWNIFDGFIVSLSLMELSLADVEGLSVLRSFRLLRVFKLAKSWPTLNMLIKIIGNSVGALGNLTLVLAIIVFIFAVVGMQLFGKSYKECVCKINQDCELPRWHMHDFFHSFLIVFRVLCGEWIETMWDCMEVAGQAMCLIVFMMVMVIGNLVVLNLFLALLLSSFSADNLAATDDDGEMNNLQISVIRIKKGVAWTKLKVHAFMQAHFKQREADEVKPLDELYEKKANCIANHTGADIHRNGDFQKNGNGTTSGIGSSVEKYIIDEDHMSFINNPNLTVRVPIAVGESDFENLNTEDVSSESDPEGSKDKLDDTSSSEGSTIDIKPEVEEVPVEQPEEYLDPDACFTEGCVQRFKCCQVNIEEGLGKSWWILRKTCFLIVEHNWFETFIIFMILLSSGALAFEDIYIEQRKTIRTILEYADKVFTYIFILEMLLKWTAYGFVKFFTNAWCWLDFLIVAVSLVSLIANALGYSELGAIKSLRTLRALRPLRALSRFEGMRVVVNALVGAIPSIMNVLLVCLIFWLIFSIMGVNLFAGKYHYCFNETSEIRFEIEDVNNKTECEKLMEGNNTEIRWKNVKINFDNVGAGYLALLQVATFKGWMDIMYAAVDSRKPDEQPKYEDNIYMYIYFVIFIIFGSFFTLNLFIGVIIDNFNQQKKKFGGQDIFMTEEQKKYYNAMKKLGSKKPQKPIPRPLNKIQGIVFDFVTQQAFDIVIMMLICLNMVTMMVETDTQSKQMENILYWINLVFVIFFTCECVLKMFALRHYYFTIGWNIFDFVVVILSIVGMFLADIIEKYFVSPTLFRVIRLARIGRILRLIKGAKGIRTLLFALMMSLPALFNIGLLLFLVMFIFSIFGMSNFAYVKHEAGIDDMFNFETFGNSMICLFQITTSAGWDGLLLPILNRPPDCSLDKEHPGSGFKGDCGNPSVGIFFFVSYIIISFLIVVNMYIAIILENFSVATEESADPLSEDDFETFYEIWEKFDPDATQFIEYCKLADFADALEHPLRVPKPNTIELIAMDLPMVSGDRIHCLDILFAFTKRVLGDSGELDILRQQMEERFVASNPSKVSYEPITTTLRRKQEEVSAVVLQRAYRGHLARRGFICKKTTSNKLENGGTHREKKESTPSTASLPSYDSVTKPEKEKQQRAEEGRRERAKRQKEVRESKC

NaV1.6 [2] = biological target: T1, NaV1.6; experiment: Electrophysiological Assay (EP), patch voltage clamp, NaV1.6; format: cell-based; settings: HEK-293 cells, whole-cell patch clamp;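 further: sodium current recorded at ambient temperature, channels held inactivated then briefly repolarized to −150 mV for 20 ms before a test pulse, control currents in 0.5% DMSO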
NaV1.1 [3] = biological target: T2, NaV1.1 (Homo sapiens (Human), UniProt P35498); experiment: Sodium Influx Assay (Flux), NaV1.1; format: cell-based; settings: Trex HEK293 cells, ANG2 dye, inactivated state;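 further: channels co-expressed with human β1 subunit and held open by modulators, cells exposed to compounds for one hour at room temperature, IC50 from percent inhibition of influx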
NaV1.1 [4] = biological target: T2, NaV1.1; experiment: Electrophysiological Assay (EP), patch voltage clamp, NaV1.1; format: cell-based; settings: HEK-293 cells, whole-cell patch clamp;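 further: sodium current block measured at ambient temperature, holding at fully inactivating potential, 20 ms repolarization to −150 mV before test pulse, versus 0.5% DMSO control currents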
NaV1.5 = NaV1.5 (Homo sapiens (Human), UniProt Q14524); experiment: Sodium Influx Assay (Flux), NaV1.5
Chain of NaV1.5 (Q14524 other isoform, or with tags, fused parts or gaps): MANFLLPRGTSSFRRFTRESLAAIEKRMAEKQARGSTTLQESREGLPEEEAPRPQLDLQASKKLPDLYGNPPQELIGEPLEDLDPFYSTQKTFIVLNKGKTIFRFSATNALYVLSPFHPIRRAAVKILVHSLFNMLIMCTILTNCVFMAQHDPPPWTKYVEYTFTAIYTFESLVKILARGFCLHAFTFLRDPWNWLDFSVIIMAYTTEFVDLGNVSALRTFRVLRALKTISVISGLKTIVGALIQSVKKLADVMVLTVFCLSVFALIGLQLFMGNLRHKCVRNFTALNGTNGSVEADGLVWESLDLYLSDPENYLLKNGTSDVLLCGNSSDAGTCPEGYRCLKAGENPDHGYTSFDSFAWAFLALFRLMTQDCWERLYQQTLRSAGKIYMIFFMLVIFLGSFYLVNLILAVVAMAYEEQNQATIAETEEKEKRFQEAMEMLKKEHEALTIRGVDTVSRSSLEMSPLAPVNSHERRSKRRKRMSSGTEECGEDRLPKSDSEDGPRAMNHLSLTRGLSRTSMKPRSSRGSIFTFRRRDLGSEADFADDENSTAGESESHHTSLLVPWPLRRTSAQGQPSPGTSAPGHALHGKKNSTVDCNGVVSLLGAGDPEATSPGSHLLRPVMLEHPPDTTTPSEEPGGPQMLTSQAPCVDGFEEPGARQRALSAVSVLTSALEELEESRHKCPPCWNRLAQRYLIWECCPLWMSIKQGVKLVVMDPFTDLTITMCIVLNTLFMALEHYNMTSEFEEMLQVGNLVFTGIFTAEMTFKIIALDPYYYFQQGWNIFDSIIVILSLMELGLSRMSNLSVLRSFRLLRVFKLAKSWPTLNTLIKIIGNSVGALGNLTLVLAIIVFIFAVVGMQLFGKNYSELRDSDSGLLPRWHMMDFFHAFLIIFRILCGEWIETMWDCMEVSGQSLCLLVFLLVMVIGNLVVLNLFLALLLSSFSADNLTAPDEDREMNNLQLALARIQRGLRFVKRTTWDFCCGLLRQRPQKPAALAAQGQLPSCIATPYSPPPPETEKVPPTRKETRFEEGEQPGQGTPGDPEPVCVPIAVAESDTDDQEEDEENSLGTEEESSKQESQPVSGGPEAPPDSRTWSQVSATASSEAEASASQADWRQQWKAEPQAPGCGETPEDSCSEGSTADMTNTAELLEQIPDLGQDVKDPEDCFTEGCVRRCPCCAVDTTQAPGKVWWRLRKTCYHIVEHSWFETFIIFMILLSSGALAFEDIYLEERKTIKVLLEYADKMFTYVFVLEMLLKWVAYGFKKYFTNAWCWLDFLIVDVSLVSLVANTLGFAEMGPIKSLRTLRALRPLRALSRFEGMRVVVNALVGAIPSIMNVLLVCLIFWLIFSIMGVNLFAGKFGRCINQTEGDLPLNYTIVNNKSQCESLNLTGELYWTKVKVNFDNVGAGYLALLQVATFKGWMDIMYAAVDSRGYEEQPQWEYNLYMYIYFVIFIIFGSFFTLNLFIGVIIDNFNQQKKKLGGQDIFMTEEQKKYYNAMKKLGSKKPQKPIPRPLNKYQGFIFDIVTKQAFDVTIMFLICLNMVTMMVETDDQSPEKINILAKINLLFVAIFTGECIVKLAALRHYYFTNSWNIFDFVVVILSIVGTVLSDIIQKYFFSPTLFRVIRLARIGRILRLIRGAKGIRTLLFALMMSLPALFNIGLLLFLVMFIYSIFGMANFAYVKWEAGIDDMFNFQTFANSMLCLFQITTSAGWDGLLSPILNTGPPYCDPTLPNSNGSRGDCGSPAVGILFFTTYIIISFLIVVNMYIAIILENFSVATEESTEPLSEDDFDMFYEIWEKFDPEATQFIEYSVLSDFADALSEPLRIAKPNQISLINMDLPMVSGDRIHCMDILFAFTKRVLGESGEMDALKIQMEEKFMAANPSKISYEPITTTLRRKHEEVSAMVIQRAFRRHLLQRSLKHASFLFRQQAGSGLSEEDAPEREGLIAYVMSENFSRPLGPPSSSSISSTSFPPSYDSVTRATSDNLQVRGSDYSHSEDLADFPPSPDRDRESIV

[5] = read-out: Flux NaV1.5 IC50, Trex HEK293 cells, ANG2 dye, inactivated state

| Compound | IC50 (NaV1.6 [1]) [µM] | IC50 (NaV1.6 [2]) [µM] | IC50 (NaV1.1 [3]) [µM] | IC50 (NaV1.1 [4]) [µM] | IC50 (NaV1.5; [5]) [µM] | IC50 (NaV1.5) [µM] |
| --- | --- | --- | --- | --- | --- | --- |
| C[C@H](Oc1cc(F)c(S(=O)(=O)Nc2nccs2)cc1F)c1ccccc1F [Example 26, (S)-2,5-difluoro-4-(1-(2-fluorophenyl)ethoxy)-N-(thiazol-2-yl)benzenesulfonamide] | 0.742 | 0.113 | 4.74 | 6.75 | 3.45 | – |
| CC[C@H](Nc1cc(F)c(S(=O)(=O)Nc2ncc(F)s2)cc1Cl)c1ccccc1 [Example 265, (S)-5-chloro-2-fluoro-N-(5-fluorothiazol-2-yl)-4-((1-phenylpropyl)amino)benzenesulfonamide] | 0.194 | 0.018 | 0.794 | 0.05 | 12.5 | – |
| C[C@H](Nc1cc(F)c(S(=O)(=O)Nc2ncco2)cc1Cl)c1cc(F)ccc1F [Example 287, (S)-5-Chloro-4-((1-(2,5-difluorophenyl)ethyl)amino)-2-fluoro-N-(oxazol-2-yl)benzenesulfonamide] | 1.53 | 0.47 | 25.2 | 10 | 30 | – |
| C[C@H](Oc1cc(F)c(S(=O)(=O)Nc2cscn2)cc1Cl)c1c(F)cccc1F [Example 120, (S)-5-chloro-4-(1-(2,6-difluorophenyl)ethoxy)-2-fluoro-N-(thiazol-4-yl)benzenesulfonamide] | 1.39 | 0.717 | 24.3 | 10 | 2.42 | – |
| C[C@H](Nc1cc(F)c(S(=O)(=O)Nc2cnccn2)cc1Cl)c1cc(Cl)ccc1F [Example 243] | 8.68 | 6.25 | ≥ 30 | 10 | – | ≥ 30 |
| C[C@H](Oc1cc(F)c(S(=O)(=O)Nc2cscn2)cc1Cl)c1ccccc1Cl [Example 123, (S)-5-chloro-4-(1-(2-chlorophenyl)ethoxy)-2-fluoro-N-(thiazol-4-yl)benzenesulfonamide] | 1.17 | 0.716 | 5.78 | 10 | 2.15 | – |
| O=S(=O)(Nc1nccs1)c1cc(Cl)c(OCc2ccccc2F)cc1F [Example 122, 5-chloro-2-fluoro-4-((2-fluorobenzyl)oxy)-N-(thiazol-2-yl)benzenesulfonamide] | 1.65 | 0.121 | 30 | 10 | 30 | – |
| C[C@H](Nc1ccc(S(=O)(=O)Nc2nccs2)c(F)c1Cl)c1ccccc1F [Example 9, (S)-3-chloro-2-fluoro-4-((1-(2-fluorophenyl)ethyl)amino)-N-(thiazol-2-yl)benzenesulfonamide] | 0.181 | 0.026 | 2.36 | 4.33 | 4.22 | – |
| CN(C)C[C@H](Nc1cc(F)c(S(=O)(=O)Nc2nccs2)cc1Cl)c1ccccc1 [Example 65, (R)-5-chloro-4-((2-(dimethylamino)-1-phenylethyl)amino)-2-fluoro-N-(thiazol-2-yl)benzenesulfonamide 2,2,2-trifluoroacetate] | 1.02 | 0.087 | 2.23 | 10 | 30 | – |
| O=S(=O)(Nc1nccs1)c1cc(Cl)c(N[C@H](CN2CCCC2)c2ccccc2)cc1F [Example 70, (S)-5-chloro-2-fluoro-4-((1-phenyl-2-(pyrrolidin-1-yl)ethyl)amino)-N-(thiazol-2-yl)benzenesulfonamide] | 0.181 | 0.036 | 30 | 10 | 30 | – |
| 5-chloro-2-fluoro-4-((1-(2-fluorophenyl)ethyl)amino)-N-(thiazol-2-yl)benzenesulfonamide [Example 144] | 0.214 | 0.034 | 2.54 | 0.907 | 9.67 | – |
| O=S(=O)(Nc1cscn1)c1cc(Cl)c(NC2(c3cc(F)ccc3F)CC2)cc1F [Example 225, 5-chloro-4-((1-(2,5-difluorophenyl)cyclopropyl)amino)-2-fluoro-N-(thiazol-4-yl)benzenesulfonamide] | 2 | 0.742 | 9.82 | 10 | 4.47 | – |
| C[C@H](Nc1cc(F)c(S(=O)(=O)Nc2nccs2)cc1Cl)c1ccccc1Cl [Example 78, (S)-5-chloro-4-((1-(2-chlorophenyl)ethyl)amino)-2-fluoro-N-(thiazol-2-yl)benzenesulfonamide] | 0.234 | 0.015 | 4.17 | 3.1 | 7.01 | – |
| O=S(=O)(Nc1cscn1)c1c(F)cc(NCc2c(F)cccc2CN2CC3(CCO3)C2)cc1F [Example 156, 4-((2-((1-oxa-6-azaspiro[3.3]heptan-6-yl)methyl)-6-fluorobenzyl)amino)-2,6-difluoro-N-(thiazol-4-yl)benzenesulfonamide formate] | 0.146 | 0.022 | 24.8 | 10 | 30 | – |

Continued, in another order:

| IC50 (NaV1.6 [1]) [µM] | IC50 (NaV1.6 [2]) [µM] | IC50 (NaV1.1 [3]) [µM] | IC50 (NaV1.1 [4]) [µM] | Compound | IC50 (NaV1.5; [5]) [µM] | IC50 (NaV1.5) [µM] |
| --- | --- | --- | --- | --- | --- | --- |
| 0.117 | 0.015 | 0.767 | 0.133 | C[C@H](Nc1cc(F)c(S(=O)(=O)Nc2ncc(F)s2)cc1Cl)c1ccccc1F [Example 266, (S)-5-chloro-2-fluoro-4-((1-(2-fluorophenyl)ethyl)amino)-N-(5-fluorothiazol-2-yl)benzenesulfonamide] | 5.44 | – |
| 0.794 | 0.041 | 3.4 | 5.31 | O=S(=O)(Nc1nccs1)c1ccc(N[C@H](c2ccccc2)C(F)(F)F)c(Cl)c1 [Example 4, (R)-3-chloro-N-(thiazol-2-yl)-4-((2,2,2-trifluoro-1-phenylethyl)amino)benzenesulfonamide formate] | 7.01 | – |
| 0.392 | 0.066 | 14.1 | 10 | CN(C)CC(Nc1cc(F)c(S(=O)(=O)Nc2nccs2)cc1Cl)c1ccccc1 (stereo not shown) [Example 63, 5-Chloro-4-((2-(dimethylamino)-1-phenylethyl)amino)-2-fluoro-N-(thiazol-2-yl)benzenesulfonamide 2,2,2-trifluoroacetate] | 30 | – |
| 0.896 | 0.122 | 30 | 10 | C[C@H](Nc1ccc(S(=O)(=O)Nc2ccncn2)cc1C(F)(F)F)c1cc(F)ccc1F [Example 273, (S)-4-((1-(2,5-difluorophenyl)ethyl)amino)-N-(pyrimidin-4-yl)-3-(trifluoromethyl)benzenesulfonamide] | 30 | – |
| 0.413 | 0.121 | 4.38 | 8.13 | C[C@H](Nc1cc(F)c(S(=O)(=O)Nc2cscn2)c(F)c1)c1cc(Cl)ccc1F [Example 207, (S)-4-((1-(5-chloro-2-fluorophenyl)ethyl)amino)-2,6-difluoro-N-(thiazol-4-yl)benzenesulfonamide 2,2,2-trifluoroacetate] | 9.57 | – |
| 0.072 | 0.015 | 16.2 | 10 | O=S(=O)(Nc1cscn1)c1ccc(NCc2c(F)cccc2CN2CCC2)c(Cl)c1F [Example 192, 4-((2-(azetidin-1-ylmethyl)-6-fluorobenzyl)amino)-3-chloro-2-fluoro-N-(thiazol-4-yl)benzenesulfonamide formate] | 8.51 | – |
| 0.307 | 0.1 | 11.7 | 10 | Cc1c(NCc2c(F)cccc2CN2CC(F)C2)ccc(S(=O)(=O)Nc2cscn2)c1F [Example 130, 2-fluoro-4-((2-fluoro-6-((3-fluoroazetidin-1-yl)methyl)benzyl)amino)-3-methyl-N-(thiazol-4-yl)benzenesulfonamide] | 17.7 | – |
| 0.227 | 0.043 | 8.54 | 10 | O=S(=O)(Nc1cscn1)c1c(F)cc(NCc2c(F)cccc2CN2CC(F)C2)cc1F [Example 194, 2,6-difluoro-4-((2-fluoro-6-((3-fluoroazetidin-1-yl)methyl)benzyl)amino)-N-(thiazol-4-yl)benzenesulfonamide formate] | 30 | – |
| 1.04 | 0.184 | 30 | 10 | C[C@H](Oc1ccc(S(=O)(=O)Nc2ncns2)cc1Cl)c1ccccc1 [Example 88, (S)-3-chloro-4-(1-phenylethoxy)-N-(1,2,4-thiadiazol-5-yl)benzenesulfonamide] | 18.2 | – |
| 0.418 | 0.122 | 6.36 | 10 | O=S(=O)(Nc1cscn1)c1ccc(NCc2c(F)cccc2CN2CC(F)C2)c(Cl)c1F [Example 133, 3-chloro-2-fluoro-4-((2-fluoro-6-((3-fluoroazetidin-1-yl)methyl)benzyl)amino)-N-(thiazol-4-yl)benzenesulfonamide] | 9.21 | – |
| 0.448 | 0.076 | 7.05 | 10 | C[C@H](Nc1cc(F)c(S(=O)(=O)Nc2ccncn2)c(F)c1)c1cc(Cl)ccc1F [Example 206, (S)-4-((1-(5-chloro-2-fluorophenyl)ethyl)amino)-2,6-difluoro-N-(pyrimidin-4-yl)benzenesulfonamide 2,2,2-trifluoroacetate] | 30 | – |
| 0.564 | 0.027 | 3.73 | 3.6 | O=S(=O)(Nc1nccs1)c1cc(Cl)c(NC2(c3ccccc3)CCC2)cc1F [Example 105, 5-chloro-2-fluoro-4-((1-phenylcyclobutyl)amino)-N-(thiazol-2-yl)benzenesulfonamide] | 10.6 | – |
